Assay results: US11835532B2, “Green concentrated reagent for hemotology systems” (priority 2018, dated 2023)

Experiment: Response of test reagent pools to osmolality, conductivity and pH adjusters
Format: physicochemical
Protocol: Assays were performed to characterize the response of the test reagents according to Table 2 to adjustments targeting changes to the pH, osmolality and conductivity of the reagent test pools.
Each of the test pools were adjusted for osmolality and conductivity with different chemicals, for example, sodium chloride, sodium sulfate, potassium sulfate, potassium bisulfate, imidazole and sodium phosphate monobasic. Adjusting for osmolality or conductivity parameters impacts all three parameters of pH, conductivity and osmolality.
Variation of pH, conductivity and osmolality was observed by adding increasing amounts of each adjuster to a test reagent pool. Amounts of each adjuster to achieve target midpoint were established. The target pH, osmolality and conductivity were pH 7.02-7.20, target osmolality 315-360 mOsm/Kg, and target conductivity 19.05-20.00 mS/cm.
All pH, conductivity and osmolality adjusters functioned as expected with no precipitation.

[1] = pH adjuster added to working concentration reagent
[2] = osmolality and conductivity adjuster added to working concentration reagent

SMILES	Osmolality change per gram of adjuster [1]	▴ Conductivity [1]	▴ pH/gm [1]	▴ Conductivity [2]	▴ Osmolality [2]	▴ pH/gm [2]
[Na+].[OH-] [50% Sodium Hydroxide]	+13.7 mOsm/kg/gm	+0.38 mS/cm/gm	+0.39	–	–	–
[Cl-].[Na+] [Sodium Chloride]	–	–	–	+1.61 mS/cm/gm	+29.2 mOsm/kg/gm	0.00
Cl [6N Hydrochloric Acid]	+7.0 mOsm/kg/gm	+0.33 mS/cm/gm	−0.16	–	–	–
O=S(=O)([O-])[O-].[Na+].[Na+] [Sodium Sulfate]	–	–	–	+0.88 mS/cm/gm	+14.1 mOsm/kg/gm	+0.01
c1c[nH]cn1 [Imidazole]	+24.9 mOsm/kg/gm	+0.28 mS/cm/gm	+0.21	–	–	–
O=S(=O)([O-])[O-].[K+].[K+] [Potassium Sulfate]	–	–	–	+1.07 mS/cm/gm	+11.9 mOsm/kg/gm	+0.02
O=P([O-])(O)O.[Na+] [Sodium Phosphate Mono]	+12.0 mOsm/kg/gm	+0.46 mS/cm/gm	−0.14	–	–	–
